Assay results: the kinase profiling compilation of Christmann-Franck et al. (2016)

Tests used:
Assay in all cases: radiometric filter-binding kinase assay, Kinase HotSpot
Conditions in all cases: compound 0.5 µM; ATP 10 µM
ACVR1 (human) = ACVR1 (human) (UniProt Q04771)
ACVR1B (human) = ACVR1B (human) (UniProt P36896)
ALK (human) = ALK (human) (UniProt Q9UM73)
CDK3 CCNE1 (human) = CDK3 CCNE1 (human) (UniProt Q00526+P24864)
CHUK (human) = CHUK (human) (UniProt O15111)
CLK1 (human) = CLK1 (human) (UniProt P49759)
CLK2 (human) = CLK2 (human) (UniProt P49760)
Chain of CLK2 (human) (P49760 whole entry, looked up): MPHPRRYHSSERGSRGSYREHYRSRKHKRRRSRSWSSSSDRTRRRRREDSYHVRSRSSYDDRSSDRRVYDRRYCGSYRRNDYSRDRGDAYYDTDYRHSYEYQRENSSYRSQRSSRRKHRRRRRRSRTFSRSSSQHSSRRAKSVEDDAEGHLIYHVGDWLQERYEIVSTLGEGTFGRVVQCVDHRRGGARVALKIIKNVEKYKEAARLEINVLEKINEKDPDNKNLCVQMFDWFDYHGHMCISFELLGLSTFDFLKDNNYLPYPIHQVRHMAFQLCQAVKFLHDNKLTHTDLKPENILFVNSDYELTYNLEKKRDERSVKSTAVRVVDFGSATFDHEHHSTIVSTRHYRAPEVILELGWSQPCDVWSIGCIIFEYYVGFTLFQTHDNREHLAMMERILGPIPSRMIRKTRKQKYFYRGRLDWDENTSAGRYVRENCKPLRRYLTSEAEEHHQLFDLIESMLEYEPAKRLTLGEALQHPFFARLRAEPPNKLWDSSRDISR

CLK3 (human) = CLK3 (human) (UniProt P49761)
CSNK1G2 (human) = CSNK1G2 (human) (UniProt P78368)
DYRK3 (human) = DYRK3 (human) (UniProt O43781)
EPHB3 (human) = EPHB3 (human) (UniProt P54753)
ERBB4 (human) = ERBB4 (human) (UniProt Q15303)
FER (human) = FER (human) (UniProt P16591)
GRK7 (human) = GRK7 (human) (UniProt Q8WTQ7)
HIPK4 (human) = HIPK4 (human) (UniProt Q8NE63)
[1] = molecular target: JAK1 JH1 catalytic (human) (UniProt P23458)
KIT (human) = KIT (human) (UniProt P10721)
MAP2K1 (human) = MAP2K1 (human) (UniProt Q02750)
Chain of MAP2K1 (human) (Q02750 whole entry, looked up): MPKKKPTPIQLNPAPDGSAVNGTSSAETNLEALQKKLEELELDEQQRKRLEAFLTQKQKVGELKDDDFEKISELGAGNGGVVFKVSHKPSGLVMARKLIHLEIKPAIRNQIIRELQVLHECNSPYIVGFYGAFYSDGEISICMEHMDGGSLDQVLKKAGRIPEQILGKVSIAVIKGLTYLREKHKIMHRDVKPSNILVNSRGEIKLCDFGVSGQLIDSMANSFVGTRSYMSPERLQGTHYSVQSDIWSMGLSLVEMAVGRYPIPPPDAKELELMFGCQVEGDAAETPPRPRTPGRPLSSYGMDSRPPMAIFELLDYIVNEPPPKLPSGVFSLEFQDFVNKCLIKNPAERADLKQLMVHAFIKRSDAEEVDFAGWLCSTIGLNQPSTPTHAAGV

MAP3K11 (human) = MAP3K11 (human) (UniProt Q16584)
Chain of MAP3K11 (human) (Q16584 whole entry, looked up): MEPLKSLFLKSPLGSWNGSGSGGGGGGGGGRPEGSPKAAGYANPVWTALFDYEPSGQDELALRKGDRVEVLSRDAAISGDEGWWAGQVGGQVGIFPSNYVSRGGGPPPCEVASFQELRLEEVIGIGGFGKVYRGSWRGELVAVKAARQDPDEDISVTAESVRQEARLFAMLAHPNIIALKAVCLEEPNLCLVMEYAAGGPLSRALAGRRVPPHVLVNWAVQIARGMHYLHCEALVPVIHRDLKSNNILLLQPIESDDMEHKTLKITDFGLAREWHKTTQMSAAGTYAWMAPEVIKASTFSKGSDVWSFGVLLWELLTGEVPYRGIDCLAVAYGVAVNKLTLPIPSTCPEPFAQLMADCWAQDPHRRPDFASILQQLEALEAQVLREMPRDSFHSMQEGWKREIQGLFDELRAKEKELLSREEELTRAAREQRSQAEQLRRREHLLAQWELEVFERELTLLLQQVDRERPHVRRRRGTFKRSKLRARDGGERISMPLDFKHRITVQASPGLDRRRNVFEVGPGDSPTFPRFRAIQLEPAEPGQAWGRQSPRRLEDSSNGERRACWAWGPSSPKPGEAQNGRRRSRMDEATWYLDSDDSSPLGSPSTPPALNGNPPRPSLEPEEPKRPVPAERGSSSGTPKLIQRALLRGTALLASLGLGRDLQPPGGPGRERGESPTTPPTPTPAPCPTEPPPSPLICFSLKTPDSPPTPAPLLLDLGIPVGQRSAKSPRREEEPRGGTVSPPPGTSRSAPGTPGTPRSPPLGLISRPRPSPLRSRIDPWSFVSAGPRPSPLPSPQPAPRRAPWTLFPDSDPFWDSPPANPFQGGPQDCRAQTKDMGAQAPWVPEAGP

MAP3K3 (human) = MAP3K3 (human) (UniProt Q99759)
MAP3K8 (human) = MAP3K8 (human) (UniProt P41279)
Chain of MAP3K8 (human) (P41279 whole entry, looked up): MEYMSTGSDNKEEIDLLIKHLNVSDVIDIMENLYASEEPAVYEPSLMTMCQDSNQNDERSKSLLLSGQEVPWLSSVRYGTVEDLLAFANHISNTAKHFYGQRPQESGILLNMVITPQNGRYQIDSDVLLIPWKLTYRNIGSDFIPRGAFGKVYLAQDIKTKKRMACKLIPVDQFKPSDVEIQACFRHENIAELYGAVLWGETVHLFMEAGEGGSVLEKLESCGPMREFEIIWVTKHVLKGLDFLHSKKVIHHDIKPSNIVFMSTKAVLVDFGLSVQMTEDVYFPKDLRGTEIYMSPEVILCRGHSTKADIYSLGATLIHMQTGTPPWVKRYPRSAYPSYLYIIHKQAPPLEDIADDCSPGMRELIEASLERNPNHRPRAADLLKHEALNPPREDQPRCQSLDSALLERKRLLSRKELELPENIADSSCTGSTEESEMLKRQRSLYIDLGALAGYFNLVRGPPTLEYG

MAP4K2 (human) = MAP4K2 (human) (UniProt Q12851)
MAPK13 (human) = MAPK13 (human) (UniProt O15264)
MARK1 (human) = MARK1 (human) (UniProt Q9P0L2)
Chain of MARK1 (human) (Q9P0L2 whole entry, looked up): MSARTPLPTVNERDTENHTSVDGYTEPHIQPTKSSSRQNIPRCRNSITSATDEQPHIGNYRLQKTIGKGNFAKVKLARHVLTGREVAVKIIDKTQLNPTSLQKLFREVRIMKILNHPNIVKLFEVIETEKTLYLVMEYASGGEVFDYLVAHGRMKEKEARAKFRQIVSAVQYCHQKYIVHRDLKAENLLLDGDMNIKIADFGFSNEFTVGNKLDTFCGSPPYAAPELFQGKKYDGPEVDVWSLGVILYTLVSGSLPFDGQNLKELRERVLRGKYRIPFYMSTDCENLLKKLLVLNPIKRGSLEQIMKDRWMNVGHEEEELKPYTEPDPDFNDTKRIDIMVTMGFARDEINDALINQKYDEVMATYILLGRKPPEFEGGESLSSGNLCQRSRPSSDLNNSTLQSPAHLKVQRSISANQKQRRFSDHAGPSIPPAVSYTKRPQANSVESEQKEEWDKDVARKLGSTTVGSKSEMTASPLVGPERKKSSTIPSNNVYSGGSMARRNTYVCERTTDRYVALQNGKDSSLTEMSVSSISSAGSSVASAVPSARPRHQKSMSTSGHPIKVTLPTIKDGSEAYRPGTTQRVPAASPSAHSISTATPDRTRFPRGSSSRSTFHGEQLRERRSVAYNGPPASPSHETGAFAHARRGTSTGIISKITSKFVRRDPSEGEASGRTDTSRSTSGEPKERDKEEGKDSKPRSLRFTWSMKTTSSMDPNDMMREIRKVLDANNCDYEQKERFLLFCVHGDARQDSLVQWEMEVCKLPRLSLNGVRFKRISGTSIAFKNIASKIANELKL

MINK1 (human) = MINK1 (human) (UniProt Q8N4C8)
NEK1 (human) = NEK1 (human) (UniProt Q96PY6)
NLK (human) = NLK (human) (UniProt Q9UBE8)
NTRK3 (human) = NTRK3 (human) (UniProt Q16288)
PAK3 (human) = PAK3 (human) (UniProt O75914)
PDGFRA (human) = PDGFRA (human) (UniProt P16234)
PDGFRB (human) = PDGFRB (human) (UniProt P09619)
PKN2 (human) = PKN2 (human) (UniProt Q16513)
PRKCE (human) = PRKCE (human) (UniProt Q02156)
Chain of PRKCE (human) (Q02156 whole entry, looked up): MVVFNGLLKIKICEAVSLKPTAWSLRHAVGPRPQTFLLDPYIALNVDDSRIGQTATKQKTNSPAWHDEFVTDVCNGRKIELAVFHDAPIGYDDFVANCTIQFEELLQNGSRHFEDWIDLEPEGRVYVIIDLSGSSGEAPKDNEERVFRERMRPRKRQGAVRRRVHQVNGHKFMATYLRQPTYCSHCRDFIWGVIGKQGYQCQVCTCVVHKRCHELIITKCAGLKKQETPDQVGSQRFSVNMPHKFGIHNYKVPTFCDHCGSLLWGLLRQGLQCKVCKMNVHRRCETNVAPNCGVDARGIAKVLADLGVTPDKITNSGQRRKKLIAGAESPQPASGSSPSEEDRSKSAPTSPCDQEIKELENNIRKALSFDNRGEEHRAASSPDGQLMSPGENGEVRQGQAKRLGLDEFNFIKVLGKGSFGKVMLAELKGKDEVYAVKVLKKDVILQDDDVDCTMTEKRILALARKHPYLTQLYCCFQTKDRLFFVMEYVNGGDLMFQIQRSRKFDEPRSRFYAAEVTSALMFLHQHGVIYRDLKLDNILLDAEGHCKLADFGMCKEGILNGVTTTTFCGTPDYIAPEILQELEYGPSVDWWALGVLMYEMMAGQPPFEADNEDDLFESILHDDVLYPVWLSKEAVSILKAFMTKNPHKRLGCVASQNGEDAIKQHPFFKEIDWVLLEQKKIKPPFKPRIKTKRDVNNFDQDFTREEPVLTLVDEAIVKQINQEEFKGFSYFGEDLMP

RET (human) = RET (human) (UniProt P07949)
ROS1 (human) = ROS1 (human) (UniProt P08922)
RPS6KA3 KD1 KD2 (human) = RPS6KA3 KD1 KD2 (human) (UniProt P51812)
SIK2 (human) = SIK2 (human) (UniProt Q9H0K1)
SLK (human) = SLK (human) (UniProt Q9H2G2)
TGFBR2 (human) = TGFBR2 (human) (UniProt P37173)
Chain of TGFBR2 (human) (P37173 whole entry, looked up): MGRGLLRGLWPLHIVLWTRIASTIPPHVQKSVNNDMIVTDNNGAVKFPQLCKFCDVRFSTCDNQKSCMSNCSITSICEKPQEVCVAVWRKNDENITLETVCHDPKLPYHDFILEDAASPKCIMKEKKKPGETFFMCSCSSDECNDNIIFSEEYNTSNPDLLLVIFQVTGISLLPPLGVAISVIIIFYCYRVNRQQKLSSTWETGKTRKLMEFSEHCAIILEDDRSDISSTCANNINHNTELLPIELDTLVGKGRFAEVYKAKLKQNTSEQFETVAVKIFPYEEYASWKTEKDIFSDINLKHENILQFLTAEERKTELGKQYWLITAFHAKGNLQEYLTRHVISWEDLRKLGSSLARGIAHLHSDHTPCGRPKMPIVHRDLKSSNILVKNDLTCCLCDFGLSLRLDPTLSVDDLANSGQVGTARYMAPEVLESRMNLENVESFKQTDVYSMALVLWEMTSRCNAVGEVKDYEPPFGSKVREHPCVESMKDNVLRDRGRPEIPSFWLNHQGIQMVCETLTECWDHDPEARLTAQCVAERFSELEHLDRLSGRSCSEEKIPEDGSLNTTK

TTK (human) = TTK (human) (UniProt P33981)
[2] = molecular target: TYK2 JH1 catalytic (human) (UniProt P29597)
ZAP70 (human) = ZAP70 (human) (UniProt P43403)

Chain of CHUK (human) (O15111 whole entry, looked up): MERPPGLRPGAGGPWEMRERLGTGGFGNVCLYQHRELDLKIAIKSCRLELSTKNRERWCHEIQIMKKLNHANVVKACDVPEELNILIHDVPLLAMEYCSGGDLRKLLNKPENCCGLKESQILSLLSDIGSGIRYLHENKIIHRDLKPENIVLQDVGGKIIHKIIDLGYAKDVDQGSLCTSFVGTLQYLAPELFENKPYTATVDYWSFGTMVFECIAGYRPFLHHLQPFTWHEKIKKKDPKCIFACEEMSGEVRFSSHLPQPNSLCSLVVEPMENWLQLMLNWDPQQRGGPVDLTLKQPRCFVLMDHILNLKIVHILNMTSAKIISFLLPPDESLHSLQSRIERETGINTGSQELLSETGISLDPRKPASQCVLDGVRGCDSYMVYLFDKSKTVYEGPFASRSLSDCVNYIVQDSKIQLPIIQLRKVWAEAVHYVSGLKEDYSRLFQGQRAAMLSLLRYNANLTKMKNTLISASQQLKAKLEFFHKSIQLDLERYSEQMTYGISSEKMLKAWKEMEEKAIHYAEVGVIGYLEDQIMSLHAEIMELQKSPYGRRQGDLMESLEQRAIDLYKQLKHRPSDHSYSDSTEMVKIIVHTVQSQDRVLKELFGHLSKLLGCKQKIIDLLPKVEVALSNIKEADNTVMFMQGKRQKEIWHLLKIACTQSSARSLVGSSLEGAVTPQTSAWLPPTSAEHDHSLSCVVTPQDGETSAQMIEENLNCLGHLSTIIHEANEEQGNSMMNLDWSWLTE

O=C1NC(=O)c2c1c1c3ccccc3[nH]c1c1[nH]c3cc(Br)ccc3c21
residual activity (ACVR1 (human)): 127% | residual activity (ACVR1B (human)): 101% | residual activity (ALK (human)): 94% | residual activity (CDK3 CCNE1 (human)): 88.1% | residual activity (CHUK (human)): 81.5% | residual activity (CLK1 (human)): 97% | residual activity (CLK2 (human)): 84.7% | residual activity (CLK3 (human)): 93.4% | residual activity (CSNK1G2 (human)): 89.5% | residual activity (DYRK3 (human)): 94.5% | residual activity (EPHB3 (human)): 91.9% | residual activity (ERBB4 (human)): 101% | residual activity (FER (human)): 88.9% | residual activity (GRK7 (human)): 98.2% | residual activity (HIPK4 (human)): 94.1% | residual activity [1]: 110% | residual activity (KIT (human)): 128% | residual activity (MAP2K1 (human)): 90.3% | residual activity (MAP3K11 (human)): 14% | residual activity (MAP3K3 (human)): 105% | residual activity (MAP3K8 (human)): 89% | residual activity (MAP4K2 (human)): 74.1% | residual activity (MAPK13 (human)): 99.1% | residual activity (MARK1 (human)): 42% | residual activity (MINK1 (human)): 52.2% | residual activity (NEK1 (human)): 89.1% | residual activity (NLK (human)): 81.7% | residual activity (NTRK3 (human)): 28.8% | residual activity (PAK3 (human)): 97.7% | residual activity (PDGFRA (human)): 97.6% | residual activity (PDGFRB (human)): 82.6% | residual activity (PKN2 (human)): 88.7% | residual activity (PRKCE (human)): 95.7% | residual activity (RET (human)): 80.1% | residual activity (ROS1 (human)): 74.4% | residual activity (RPS6KA3 KD1 KD2 (human)): 46.3% | residual activity (SIK2 (human)): 80.4% | residual activity (SLK (human)): 90.9% | residual activity (TGFBR2 (human)): 61.8% | residual activity (TTK (human)): 98.7% | residual activity [2]: 81.1% | residual activity (ZAP70 (human)): 104%

c1ccc(-c2cnc(Nc3ccc(OCCN4CCCC4)cc3)s2)cc1
residual activity (ACVR1 (human)): 164% | residual activity (ACVR1B (human)): 101% | residual activity (ALK (human)): 97% | residual activity (CDK3 CCNE1 (human)): 97.6% | residual activity (CHUK (human)): 93.3% | residual activity (CLK1 (human)): 89.4% | residual activity (CLK2 (human)): 102% | residual activity (CLK3 (human)): 94.3% | residual activity (CSNK1G2 (human)): 100% | residual activity (DYRK3 (human)): 106% | residual activity (EPHB3 (human)): 93.3% | residual activity (ERBB4 (human)): 101% | residual activity (FER (human)): 90% | residual activity (GRK7 (human)): 90.2% | residual activity (HIPK4 (human)): 98.5% | residual activity [1]: 101% | residual activity (KIT (human)): 20.3% | residual activity (MAP2K1 (human)): 96.9% | residual activity (MAP3K11 (human)): 84.4% | residual activity (MAP3K3 (human)): 99.2% | residual activity (MAP3K8 (human)): 97.2% | residual activity (MAP4K2 (human)): 113% | residual activity (MAPK13 (human)): 104% | residual activity (MARK1 (human)): 90.1% | residual activity (MINK1 (human)): 38.7% | residual activity (NEK1 (human)): 94.2% | residual activity (NLK (human)): 89.7% | residual activity (NTRK3 (human)): 22.6% | residual activity (PAK3 (human)): 99.1% | residual activity (PDGFRA (human)): 57.4% | residual activity (PDGFRB (human)): 28.5% | residual activity (PKN2 (human)): 97% | residual activity (PRKCE (human)): 90.5% | residual activity (RET (human)): 84.2% | residual activity (ROS1 (human)): 96.9% | residual activity (RPS6KA3 KD1 KD2 (human)): 92.2% | residual activity (SIK2 (human)): 45.6% | residual activity (SLK (human)): 96.7% | residual activity (TGFBR2 (human)): 129% | residual activity (TTK (human)): 102% | residual activity [2]: 106% | residual activity (ZAP70 (human)): 105%

Cc1cc(Nc2nc(-c3ccccc3)nc3ccccc23)n[nH]1
residual activity (ACVR1 (human)): 149% | residual activity (ACVR1B (human)): 103% | residual activity (ALK (human)): 75.9% | residual activity (CDK3 CCNE1 (human)): 85% | residual activity (CHUK (human)): 96.5% | residual activity (CLK1 (human)): 74% | residual activity (CLK2 (human)): 91.7% | residual activity (CLK3 (human)): 33.8% | residual activity (CSNK1G2 (human)): 69.3% | residual activity (DYRK3 (human)): 81.9% | residual activity (EPHB3 (human)): 86.5% | residual activity (ERBB4 (human)): 92% | residual activity (FER (human)): 31.6% | residual activity (GRK7 (human)): 79.2% | residual activity (HIPK4 (human)): 102% | residual activity [1]: 83.7% | residual activity (KIT (human)): 40.8% | residual activity (MAP2K1 (human)): 91.6% | residual activity (MAP3K11 (human)): 18.1% | residual activity (MAP3K3 (human)): 82.9% | residual activity (MAP3K8 (human)): 105% | residual activity (MAP4K2 (human)): 45.3% | residual activity (MAPK13 (human)): 106% | residual activity (MARK1 (human)): 93.7% | residual activity (MINK1 (human)): 35.6% | residual activity (NEK1 (human)): 93% | residual activity (NLK (human)): 94.7% | residual activity (NTRK3 (human)): 2.01% | residual activity (PAK3 (human)): 90.2% | residual activity (PDGFRA (human)): 81.6% | residual activity (PDGFRB (human)): 55.4% | residual activity (PKN2 (human)): 87.2% | residual activity (PRKCE (human)): 87.1% | residual activity (RET (human)): 8.76% | residual activity (ROS1 (human)): 16.7% | residual activity (RPS6KA3 KD1 KD2 (human)): 66.1% | residual activity (SIK2 (human)): 99.6% | residual activity (SLK (human)): 42.2% | residual activity (TGFBR2 (human)): 116% | residual activity (TTK (human)): 102% | residual activity [2]: 34.3% | residual activity (ZAP70 (human)): 105%
